Experimental data published in patent publication US12319939B2, “Carbonyl reductase mutant and its application” (priority 2023, dated 2025).

Key:
[1] = target: Candida orthopsilosis Co 90-125 carbonyl reductase CoCR 13 (Genbank XP_003867714.1), wild type (WT), SEQ ID NO: 1 (Lodderomyces orthopsilosis, UniProt H8WZT2); assay: Enzyme kinetic parameters (NADPH consumption at 340 nm), initial carbonyl reductase; type: biochemical
Excerpt: On this basis, serine (Ser) at position 126 is replaced with alanine (Ala), to obtain the triple mutant R129L/D210T/S126A (amino acid sequence as shown in SEQ ID NO: 5).
Through gene mining, the carbonyl reductase gene with Genbank ID XP_003867714.1 was screened from the NCBI database. The open reading frame of this gene is 1005 bp long, the carbonyl reductase encoded by it consists of 334 amino acids, and its amino acid sequence (334aa) is:
(§1) One enzyme activity unit U is defined as the amount of enzyme required to consume 1 μmol NADPH within 1 minute.
(§2) The substrate concentration was set to be 0.1-10 mM, and the rest was the same enzyme activity determination system and reaction conditions as described above.

[2] = target: Candida orthopsilosis Co 90-125 carbonyl reductase CoCR 13 variant R129L/D210T, SEQ ID NO: 3 (Lodderomyces orthopsilosis, UniProt H8WZT2, D210T/R129L); assay: Enzyme kinetic parameters (NADPH consumption at 340 nm), double mutant; type: biochemical
Excerpt: (§3) The present disclosure starts with the substrate channel of the carbonyl reductase protein structure of Candida orthopsilosis Co 90-125 (amino acid sequence as shown in SEQ ID NO: 1) with ID XP 003867714.1 in Genbank, analyzes the entrance segment and internal structural characteristics of the substrate channel, and performs iterative saturation mutagenesisit through semi-rational design, so as to determine that the key factor affecting the initial enzymatic properties of carbonyl reductase is the amino acids at positions R129, D210 and S126. […] On this basis, serine (Ser) at position 126 is replaced with alanine (Ala), to obtain the triple mutant R129L/D210T/S126A (amino acid sequence as shown in SEQ ID NO: 5).
(§4) The double mutation R129L/D210T changed the codons 385-387 of the carbonyl reductase gene sequence from CGT to CTG, thereby replacing the 129th position of the amino acid sequence from arginine (R) to leucine (L); changed the codons 628-630th position from GAT to ACC, thereby the 210th position of the amino acid sequence from aspartic acid (D) to threonine (T), to obtain an enzyme mutant, wherein its amino acid sequence is shown in SEQ ID NO: 3, and the nucleotide sequence of the coding gene is shown in SEQ ID NO: 4.
as §1, §2

[3] = target: Candida orthopsilosis Co 90-125 carbonyl reductase CoCR 13 variant R129L/D210T/S126A, SEQ ID NO: 5 (Lodderomyces orthopsilosis, UniProt H8WZT2, D210T/R129L/S126A); assay: Enzyme kinetic parameters (NADPH consumption at 340 nm), triple mutant; type: biochemical
Excerpt: as §3
(§5) While the triple mutation changed from AGC to GCG at codons 376-378 of the carbonyl reductase double mutant gene sequence, thereby replacing serine(S) with alanine (A) at position 126 of the amino acid sequence, to obtain a triple mutant, wherein its amino acid sequence is shown in SEQ ID NO: 5, and the nucleotide sequence of the coding gene is shown in SEQ ID NO: 6.
as §1, §2

CCOC(=O)CCCCC(=O)CCCl [4] = assay: Enzyme kinetic parameters (NADPH consumption at 340 nm), double mutant; type: biochemical, Candida orthopsilosis Co 90-125; conditions: other: R129L/D210T, substrate 0.1-10 mM, PB pH 7.0, 30° C.
Excerpt: as §3, §4, §1, §2

CCOC(=O)CCCCC(=O)CCCl [5] = assay: Enzyme kinetic parameters (NADPH consumption at 340 nm), triple mutant; type: biochemical, Candida orthopsilosis Co 90-125; conditions: other: R129L/D210T/S126A, substrate 0.1-10 mM, PB pH 7.0, 30° C.
Excerpt: as §3, §5, §1, §2

[6] = WT, substrate 0.1-10 mM, NADPH, PB pH 7.0, 30° C.
[7] = R129L/D210T, substrate 0.1-10 mM, NADPH, PB pH 7.0, 30° C.
[8] = R129L/D210T/S126A, substrate 0.1-10 mM, NADPH, PB pH 7.0, 30° C.

Q: How did the Relative catalytic efficiency ([1]; WT as reference (1.00)) turn out when `CCOC(=O)CCCCC(=O)CCCl` [8-chloro-6-oxooctanoic acid ethyl ester] was run?
A: 1.00

Q: What about the “Catalytic efficiency (kcat/Km)” value [1, 6] of the same compound?
A: 920 M⁻¹ s⁻¹

Q: And the “Number of conversions (kcat)” value [1, 6]?
A: 4.7 ± 0.33 s⁻¹

Q: What about the Relative catalytic efficiency ([2]; R129L/D210T relative to WT) of the same compound?
A: 31.65

Q: And the “Catalytic efficiency (kcat/Km)” value [2, 7]?
A: 29120 M⁻¹ s⁻¹

Q: What about the “Number of conversions (kcat)” value [2, 7] of the same compound?
A: 50.60 ± 1.49 s⁻¹

Q: What about the “catalytic efficiency increase compared to the initial carbonyl reductase” value ([2]; double mutant vs initial carbonyl reductase) of the same compound?
A: 31.65 times

Q: What about the Relative catalytic efficiency ([3]; R129L/D210T/S126A relative to WT) of the same compound?
A: 93.42

Q: And the “Catalytic efficiency (kcat/Km)” value [3, 8]?
A: 85950 M⁻¹ s⁻¹

Q: What about the “Number of conversions (kcat)” value [3, 8] of the same compound?
A: 69.46 ± 2.50 s⁻¹

Q: What about the “catalytic efficiency increase compared to the initial carbonyl reductase” value ([3]; triple mutant vs initial carbonyl reductase) of the same compound?
A: 93.42 times

Q: How did the Km (CCOC(=O)CCCCC(=O)CCCl [4]) turn out when “Candida orthopsilosis Co 90-125 carbonyl reductase CoCR 13 variant R129L/D210T, SEQ ID NO: 3 (Lodderomyces orthopsilosis Co 90-125; D210T/R129L)” was run?
A: 1740 ± 160 µM

Q: How did the Km (CCOC(=O)CCCCC(=O)CCCl [5]) turn out when “Candida orthopsilosis Co 90-125 carbonyl reductase CoCR 13 variant R129L/D210T/S126A, SEQ ID NO: 5 (Lodderomyces orthopsilosis Co 90-125; D210T/R129L/S126A)” was run?
A: 810 ± 110 µM
